PubChem BioAssay AID248 (DTP/NCI, 2004)
Values joined by “and” are separate entries in the source; they are usually repeats but may differ in a detail not shown here. Equal entries are not always repeated. Toxic doses and inconclusive results are not listed. Rule as the data show it: active = T/C of 150% or more; inactive = T/C below 125%.

Test system: L1210 leukemia ip in BDF1 mice, survival T/C
Experiment: NCI In Vivo Anticancer Drug Screen. Data for tumor model L1210 Leukemia (intraperitoneal) in B6D2F1 (BDF1) mice
Details: endpoint: mean survival time, higher = longer survival
How it was run: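 Value reflects the ratio of survival in compound-treated mice to survival in vehicle-treated controls, with both groups carrying the same transplanted tumor.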

[1] = dose: 100.0 mg/kg/injection, schedule: Q01DX001 (ip), vehicle: saline
[2] = dose: 100.0 mg/kg/injection, schedule: Q04DX003 (ip), vehicle: saline
[3] = dose: 200.0 mg/kg/injection, schedule: Q01DX001 (ip), vehicle: saline
[4] = dose: 400.0 mg/kg/injection, schedule: Q01DX001 (ip), vehicle: saline
[5] = dose: 50.0 mg/kg/injection, schedule: Q01DX001 (ip), vehicle: saline
[6] = dose: 100.0 mg/kg/injection, schedule: Q04DX003 (ip), vehicle: Klucel (hydroxypropylcellulose) (HPC)
[7] = dose: 200.0 mg/kg/injection, schedule: Q04DX003 (ip), vehicle: Klucel (hydroxypropylcellulose) (HPC)
[8] = dose: 400.0 mg/kg/injection, schedule: Q04DX003 (ip), vehicle: Klucel (hydroxypropylcellulose) (HPC)
[9] = dose: 100.0 mg/kg/injection, schedule: Q04DX002 (ip), vehicle: Klucel (hydroxypropylcellulose) (HPC)
[10] = dose: 200.0 mg/kg/injection, schedule: Q04DX002 (ip), vehicle: Klucel (hydroxypropylcellulose) (HPC)
[11] = dose: 50.0 mg/kg/injection, schedule: Q01DX009 (ip), vehicle: saline with Tween-80
[12] = dose: 100.0 mg/kg/injection, schedule: Q01DX009 (ip), vehicle: saline with Tween-80
[13] = dose: 200.0 mg/kg/injection, schedule: Q01DX009 (ip), vehicle: saline with Tween-80
[14] = dose: 100.0 mg/kg/injection, schedule: Q01DX009 (ip), vehicle: Klucel (hydroxypropylcellulose) (HPC)
[15] = dose: 200.0 mg/kg/injection, schedule: Q01DX009 (ip), vehicle: Klucel (hydroxypropylcellulose) (HPC)
[16] = dose: 400.0 mg/kg/injection, schedule: Q01DX009 (ip), vehicle: Klucel (hydroxypropylcellulose) (HPC)
[17] = dose: 100.0 mg/kg/injection, schedule: Q01DX009 (ip), vehicle: saline
[18] = dose: 25.0 mg/kg/injection, schedule: Q04DX003 (ip), vehicle: saline
[19] = dose: 50.0 mg/kg/injection, schedule: Q04DX003 (ip), vehicle: saline

Measured: T/C

COC1OCC(O)C(O)C1O (centres undefined)
inactive: [1] 92 % of control | [2] 98 % of control | [3] 95 % of control | dose: 200.0 mg/kg/injection, schedule: Q04DX003 (ip), vehicle: saline 106 % of control | [4] 95 % of control | dose: 400.0 mg/kg/injection, schedule: Q04DX003 (ip), vehicle: saline 101 % of control

S=C(S)NCCc1ccccn1
inactive: dose: 100.0 mg/kg/injection, schedule: Q04DX003 (ip), vehicle: saline with Tween-80 95 % of control | dose: 200.0 mg/kg/injection, schedule: Q04DX003 (ip), vehicle: saline with Tween-80 87 % of control | dose: 400.0 mg/kg/injection, schedule: Q04DX003 (ip), vehicle: saline with Tween-80 98 % of control

COc1ccc(NS(=O)c2ccc(Oc3ccccc3)cc2)cc1 (centres undefined)
inactive: dose: 25.6 mg/kg/injection, schedule: Q04DX002 (ip), vehicle: saline with Tween-80 106 % of control | dose: 64.0 mg/kg/injection, schedule: Q04DX002 (ip), vehicle: saline with Tween-80 112 % of control | dose: 160.0 mg/kg/injection, schedule: Q04DX002 (ip), vehicle: saline with Tween-80 101 % of control | dose: 400.0 mg/kg/injection, schedule: Q04DX002 (ip), vehicle: saline with Tween-80 93 % of control

CN=C(NC)NCc1ccccc1
inactive: [5] 95 % of control | [1] 97 % of control

CC(=O)CC(=O)Nc1nc2ccccc2s1
inactive: [6] 92 % of control | [7] 103 % of control | [8] 97 % of control

O=C(NC1CCCCC1)c1ccc([N+](=O)[O-])cc1
inactive: dose: 100.0 mg/kg/injection, schedule: Q01DX001 (ip), vehicle: Klucel (hydroxypropylcellulose) (HPC) 104 % of control | dose: 200.0 mg/kg/injection, schedule: Q01DX001 (ip), vehicle: Klucel (hydroxypropylcellulose) (HPC) 101 % of control | dose: 400.0 mg/kg/injection, schedule: Q01DX001 (ip), vehicle: Klucel (hydroxypropylcellulose) (HPC) 101 % of control

COc1ccc([N+](=O)[O-])cc1NC(=O)Nc1cccc(C(F)(F)F)c1
inactive: [9] 96 % of control | [10] 101 % of control | dose: 400.0 mg/kg/injection, schedule: Q04DX002 (ip), vehicle: Klucel (hydroxypropylcellulose) (HPC) 96 % of control

OCC[CH2][Sn]([c]1ccccc1)([c]1ccccc1)[c]1ccccc1
inactive: dose: 6.25 mg/kg/injection, schedule: Q04DX002 (ip), vehicle: saline with Tween-80 101 % of control | dose: 12.5 mg/kg/injection, schedule: Q04DX002 (ip), vehicle: saline with Tween-80 101 % of control | dose: 25.0 mg/kg/injection, schedule: Q04DX002 (ip), vehicle: saline with Tween-80 87 % of control | [11] 96 % of control | [12] 96 % of control | [13] 96 % of control

CC(CNCCN)C[Si](C)(C)C (centres undefined)
inactive: dose: 4.0 mg/kg/injection, schedule: Q01DX015 (ip), vehicle: saline 101 % of control | dose: 6.25 mg/kg/injection, schedule: Q04DX003 (ip), vehicle: saline sonified 101 % of control | dose: 8.0 mg/kg/injection, schedule: Q01DX015 (ip), vehicle: saline 96 % of control | dose: 12.5 mg/kg/injection, schedule: Q04DX003 (ip), vehicle: saline sonified 97 % of control | dose: 16.0 mg/kg/injection, schedule: Q01DX015 (ip), vehicle: saline 102 % of control | dose: 25.0 mg/kg/injection, schedule: Q04DX003 (ip), vehicle: saline sonified 97 % of control | dose: 32.0 mg/kg/injection, schedule: Q01DX015 (ip), vehicle: saline 96 % of control

COc1ccc(O)c(CCCO)c1
inactive: [5] 104 % of control | [1] 95 % of control | [3] 112 % of control | [4] 95 % of control

CC(C)(C)NC(=O)C1C2CCC1C2Cl (centres undefined)
inactive: dose: 75.0 mg/kg/injection, schedule: Q01DX001 (ip), vehicle: saline 96 % of control | dose: 150.0 mg/kg/injection, schedule: Q01DX001 (ip), vehicle: saline 92 % of control | dose: 300.0 mg/kg/injection, schedule: Q01DX001 (ip), vehicle: saline 90 % of control

O=S(=O)(C1CCCCC1)C1CCCC1
inactive: [14] 97 % of control | [6] 102 % of control | [15] 100 % of control | [7] 105 % of control | [16] 107 % of control | [8] 107 % of control

COC(=O)C1(C)CSCCC1=O (centres undefined)
inactive: dose: 100.0 mg/kg/injection, schedule: Q01DX009 (ip), vehicle: other 94 % of control | dose: 200.0 mg/kg/injection, schedule: Q01DX009 (ip), vehicle: other 94 % of control | dose: 400.0 mg/kg/injection, schedule: Q01DX009 (ip), vehicle: other 99 % of control

O=[N+]([O-])/C(=C/c1ccccc1)c1ccccc1
inactive: [5] 102 % of control | [1] 108 % of control | [3] 104 % of control

COc1cc(-c2cc(OC)c(N=N/C(=N/Nc3ccc([N+](=O)[O-])cc3)c3ccc([N+](=O)[O-])cc3)cc2Cl)c(Cl)cc1N=N/C(=N\Nc1ccc([N+](=O)[O-])cc1)c1ccc([N+](=O)[O-])cc1
inactive: [5] 103 % of control | [1] 94 % of control | [3] 103 % of control | [4] 94 % of control

O=C(O)C1C2c3ccccc3C(C1C(=O)O)[n+]1ccccc12 (centres undefined)
inactive: [17] 95 % of control | dose: 200.0 mg/kg/injection, schedule: Q01DX009 (ip), vehicle: saline 103 % of control | dose: 400.0 mg/kg/injection, schedule: Q01DX009 (ip), vehicle: saline 94 % of control

CSc1ccc(NC(=O)Nc2cccc(C)n2)cc1
inactive: [14] 98 % of control | [6] 95 % of control | [15] 108 % of control | [7] 93 % of control | [16] 97 % of control | [8] 97 % of control

Nc1c(Br)cc(Br)cc1Br
inactive: [14] 96 % of control | [6] 106 % of control | [15] 96 % of control | [7] 92 % of control | [16] 98 % of control | [8] 97 % of control

O=C(c1cccc([N+](=O)[O-])c1)c1sc2ccccc2c1O
inactive: dose: 50.0 mg/kg/injection, schedule: Q04DX002 (ip), vehicle: Klucel (hydroxypropylcellulose) (HPC) 90 % of control | [9] 93 % of control | [10] 88 % of control

N#CC(Cl)(Cl)CCl
inactive: dose: 12.0 mg/kg/injection, schedule: Q04DX003 (ip), vehicle: saline 105 % of control | [18] 96 % of control | [19] 96 % of control | [2] 103 % of control and 105 % of control

CCN(CC)CCOc1ccc(OC)cc1
inactive: [18] 91 % of control | dose: 50.0 mg/kg/injection, schedule: Q01DX009 (ip), vehicle: saline 102 % of control | [19] 115 % of control | [17] 111 % of control | [2] 104 % of control and 121 % of control

O=C1C(c2c[nH]c3ccc(Br)cc23)=Nc2ccc([N+](=O)[O-])cc21
inactive: [3] 96 % of control | [4] 93 % of control

CSc1nnc(C)c(=O)[nH]1
inactive: dose: 100.0 mg/kg/injection, schedule: Q01DX001 (ip), vehicle: saline with Tween-80 100 % of control | dose: 200.0 mg/kg/injection, schedule: Q01DX001 (ip), vehicle: saline with Tween-80 102 % of control | dose: 400.0 mg/kg/injection, schedule: Q01DX001 (ip), vehicle: saline with Tween-80 97 % of control

NCCCC(N)C(=O)O (centres undefined)
inactive: [1] 98 % of control | [3] 102 % of control | [4] 106 % of control

COc1ccccc1-c1cn(O)c2nc(=N)nc(N)c-2n1
inactive: dose: 100.0 mg/kg/injection, schedule: Q04DX002 (ip), vehicle: saline 97 % of control | dose: 200.0 mg/kg/injection, schedule: Q04DX002 (ip), vehicle: saline 94 % of control | dose: 400.0 mg/kg/injection, schedule: Q04DX002 (ip), vehicle: saline 111 % of control

CC(=O)OCC(=O)[C@@]1(O)CC[C@H]2[C@@H]3CCC4=CC(=O)C=C[C@]4(C)[C@@]3(F)[C@@H](O)C[C@@]21C
inactive: dose: 12.5 mg/kg/injection, schedule: Q01DX009 (ip), vehicle: saline with Tween-80 117 % of control | dose: 25.0 mg/kg/injection, schedule: Q01DX009 (ip), vehicle: saline with Tween-80 101 % of control | [11] 96 % of control

CCCCCCCc1ccc(N=Cc2ccc(OCCC)cc2)cc1
inactive: [12] 100 % of control | [13] 87 % of control | dose: 400.0 mg/kg/injection, schedule: Q01DX009 (ip), vehicle: saline with Tween-80 86 % of control
